One assay has as its target T1, Pd-Mn-SOD (MSD) (Philasterides dicentrarchi, UniProt A0A410JA19).
T1 construct: native enzyme, about 50 kDa activity band in anion-exchange fraction P2 on native PAGE; homodimer
T1 sequence (A0A410JA19 13-220): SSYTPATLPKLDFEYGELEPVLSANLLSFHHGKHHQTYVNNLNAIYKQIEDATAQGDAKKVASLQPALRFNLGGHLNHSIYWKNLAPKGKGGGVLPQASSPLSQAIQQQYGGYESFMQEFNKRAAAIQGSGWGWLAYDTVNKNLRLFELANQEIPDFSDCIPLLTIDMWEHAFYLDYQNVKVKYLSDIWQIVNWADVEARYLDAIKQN
The assay can be described thus: SOD activity staining (NBT) in native PAGE. In kind it is biochemical. The settings on record: 100 μM inhibitor; anion-exchange fraction P2 (methods also describe 30 min treatment of live ciliates before lysis).

A further assay has as its target T2, Pd-Fe-SOD (FSD) (Philasterides dicentrarchi, UniProt A0A481XSU7).
T2 construct: native enzyme, 60-65 kDa activity band in anion-exchange fraction P2 on native PAGE; homodimer
T2 sequence (A0A481XSU7 22-249): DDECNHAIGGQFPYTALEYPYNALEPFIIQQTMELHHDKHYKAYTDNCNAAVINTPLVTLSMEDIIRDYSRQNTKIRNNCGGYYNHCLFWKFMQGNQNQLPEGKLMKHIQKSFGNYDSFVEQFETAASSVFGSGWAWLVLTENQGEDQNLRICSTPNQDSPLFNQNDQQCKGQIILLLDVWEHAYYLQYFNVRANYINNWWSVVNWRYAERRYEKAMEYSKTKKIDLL
The assay can be described thus: SOD activity staining (NBT) in native PAGE. The format is biochemical. The settings on record: 100 μM inhibitor; anion-exchange fraction P2 (methods also describe 30 min treatment of live ciliates before lysis).

We go through 1 compound from publication PMC6746850, “Identification and Molecular Characterization of Superoxide Dismutases Isolated From A Scuticociliate Parasite: Physiological Role in Oxidative Stress” (Scientific Reports, 2019).

`Oc1ccc(/C=C/c2cc(O)cc(O)c2)cc1` [trans-resveratrol]: the “partial inhibition at 100 μM” value on Pd-Mn-SOD (MSD) is “RESV partly inhibited the activity of the Pd-Mn-SOD isoenzyme”. Also, at Pd-Fe-SOD (FSD), the “complete inhibition at 100 μM” value is recorded as “completely inhibited the activity of the Pd-Fe-SOD isoenzyme”.
